Data on one cell line can be found in the supplement of paper PMC10307832.

What all share (test): relative viability (nuclei count vs DMSO), 5 days (fraction); higher = more cells survive
Compound in experiment [1]: CC1CC(=O)N(C2=CN=C(N=C2N1C3CCCC3)NC4=C(C=C(C=C4)C(=O)NC5CCN(CC5)C)OC)C [NPK76-II-72-1] + Nc1ncn([C@H]2C[C@H](O)[C@@H](CO)O2)c(=O)n1 [Decitabine] (partner 2 µM)
A digest of the protocol: (§1)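 Relative viability equals treated-well nuclei counts divided by vehicle-well nuclei counts. Counts came from 4× images of lung cancer cell lines grown in 1536-well plates for 5 days after pin-tool dosing on the day after seeding. Dosing used one drug alone or a fixed anchor-drug dose plus five library-drug doses (not always all listed) in √10 steps, and values are medians of duplicate plates.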

Compound in the experiment “BI-2536 + Lapatinib”: CC[C@@H]1C(=O)N(C)c2cnc(Nc3ccc(C(=O)NC4CCN(C)CC4)cc3OC)nc2N1C1CCCC1 [BI-2536] + CS(=O)(=O)CCNCc1ccc(-c2ccc3ncnc(Nc4ccc(OCc5cccc(F)c5)c(Cl)c4)c3c2)o1 [Lapatinib] (partner 2 µM)
The essentials:
as §1

Compound in experiment [2]: CC1CC(=O)N(C2=CN=C(N=C2N1C3CCCC3)NC4=C(C=C(C=C4)C(=O)NC5CCN(CC5)C)OC)C [NPK76-II-72-1] + O=C(CCCCCCC(=O)Nc1ccccc1)NO [Vorinostat] (partner 1 µM)
A digest of the protocol:
as §1

Compound in experiment [3]: CC1CC(=O)N(C2=CN=C(N=C2N1C3CCCC3)NC4=C(C=C(C=C4)C(=O)NC5CCN(CC5)C)OC)C [NPK76-II-72-1] + Cc1nc(NC(=O)N2CCC[C@H]2C(N)=O)sc1-c1ccnc(C(C)(C)C(F)(F)F)c1 [Alpelisib] (partner 2 µM)
A digest of the protocol: as §1

In the case of UMC-11, the relative viability in experiment [1] (first compound 0.01 µM) worked out at 0.617; in experiment [1] (first compound 0.03162 µM) it was 0.57; in experiment [1] (first compound 0.1 µM), 0.683; in experiment [1] (first compound 0.3162 µM), 0.505; in experiment [1] (first compound 1 µM) it was 0.736; with BI-2536 + Lapatinib (first compound 0.01 µM), 1.02. Moreover, the relative viability in the experiment with BI-2536 + Lapatinib (first compound 0.03162 µM) amounted to 0.765; in the experiment with BI-2536 + Lapatinib (first compound 0.1 µM), 0.132; with BI-2536 + Lapatinib (first compound 0.3162 µM) it was 0.17; in the experiment with BI-2536 + Lapatinib (first compound 1 µM), 0.18; in experiment [2] (first compound 0.01 µM), 0.358; in experiment [2] (first compound 0.03162 µM) it was 0.365. For the same cell line, the relative viability worked out at 0.334 in experiment [2] (first compound 0.1 µM); 0.392 in experiment [2] (first compound 0.3162 µM); 0.309 in experiment [2] (first compound 1 µM); 0.967 in experiment [3] (first compound 0.01 µM); 0.994 in experiment [3] (first compound 0.03162 µM); 1.02 in experiment [3] (first compound 0.1 µM). For the same cell line, the relative viability in experiment [3] (first compound 0.3162 µM) was 0.835; in experiment [3] (first compound 1 µM), 0.978.
